Where two headings read alike, the source gives them in different places.
Tested on: IgE antibody
Format: in vivo, rats
Details: for IgE antibody amount in serum, Average value: group average, maximum dilution of serum showing positive reaction
Experimental: At first, 20 male SD rats weighing 180 to 220 g were prepared. Egg-white albumin in an amount of 1 mg per rat was prepared as an antigen to induce the IgE antibody-antigen mediating immune response. Further, a mixture of 20 mg/rat of aluminum hydroxide with 0.6 mi/rat of pertussis vaccine was prepared as an immune aid (adjuvant).
Then, the above antigen and the above adjuvant were equally administered intracutaneously into the four footpads of each rat for sensitization.
24 Hours after the sensitization, the footpad swelling of each rat was measured by volumetry to determine the swelling ratio (unit: %). Then, the rats were separated into four groups each consisting of 5 rats such that the average swelling ratio of one group was nearly equal to that of another group.
Thereafter, one of the four groups was used as Control group, and a physiological saline solution of 10 % Nikkol (trade name, dissolving aid, supplied by Nikko Chemical Co., Ltd.) was administered intraperitoneally to each rat for the 11 consecutive days after the group separation, and on 15th day after the group separation, the serum of each rat was collected, and measured for an IgE antibody amount by means of a 48-hour homologous PCA reaction (passive cutaneous anaphylaxis reaction) as an index. In addition, the IgE antibody amount is shown in terms of a maximum dilution (unit: %) of serum showing positive reaction (blue spot having a diameter of not less than 5 mm).
Two groups of the remaining three groups were used as Example groups ⑥ and 0. A physiological saline solution of 10 % Nikkol containing VIE-MAN was administered intraperitoneally to each rat of Example group ⑥ in such a dose that the amount of VIE-MAN was 30 mg/kg/day for 11 days after the group separation. And, a physiological saline solution of 10 % Nikkol containing VIE-MAN was administered intraperitoneally to each rat of Example group 0 every other day (number of days for administration: 6 days) in such a dose that the amount of VIE-MAN was 100 mg/kg/day for 11 days after the group separation. Then, on 15th day after the group separation, the serum of each rat was collected, and measured for an IgE antibody amount in the same manner as that for Control group.
One remaining group of the four groups was used as Comparative Example group @. A physiological saline solution of 10 % Nikkol containing hydrocortisone which was an adrenocortical hormone preparation was administered intraperitoneally to each rat in such a dose that the amount of the hydrocortisone was 10 mg/kg/day for the consecutive 11 days after the group separation. Then, on 15th day after the group separation, the serum of each rat was collected, and measured for an IgE antibody amount in the same manner as that for Example groups 6 and ⑦.

## Cc1c(C)c2c(c(C)c1OC1OC(CO)C(O)C(O)C1O)CCC(C)(CCCC(C)CCCC(C)CCCC(C)C)O2 (racemic) [VIE-GLU, dl-α-tocopheryl-,8-D-glucoside]
Same test as Example 3 with VIE-GLU in place of VIE-MAN
  inhibition activity against the IgE antibody production: excellent inhibition activity

## Cc1c(C)c2c(c(C)c1OC1OC(CO)C(O)C(O)C1O)CCC(C)(CCCC(C)CCCC(C)CCCC(C)C)O2 (racemic) [VIE-MAN, dl-a-tocopheryl-a-D-mannoside]
30 mg/kg/day (11 days) or 100 mg/kg/day (6 days) intraperitoneally, versus Control group
  average value of the IgE antibody amounts as a group unit: significantly lower than that of the IgE antibody amounts of Control group
Example 3 / Comparative Example 2, VIE-MAN 30 or 100 mg/kg/day, hydrocortisone 10 mg/kg/day, intraperitoneally
  inhibition activity against the IgE antibody production: excellent inhibition activity
30 mg/kg/day (total 11 days) intraperitoneally
  IgE antibody amount in serum, Average value: 166.4
100 mg/kg/day (total 6 days) intraperitoneally
  IgE antibody amount in serum, Average value: 128.0

From EP0452507A1, “MEDICINE COMPRISING TOCOPHERYL GLYCOSIDE AS ACTIVE INGREDIENT” (NIPPON HYPOX LABORATORIES INCORPORATED, priority 1989, dated 1991)
